Test results: ChEMBL document CHEMBL3044843, “Synthesis of 1,2,3-triazole tethered bifunctional hybrids by click chemistry and their cytotoxic studies” (2013)
Where a name gives a salt, the structure may show the parent alone.

Tests used:
Type in all cases: functional
Details in all cases: read-out: GI
[1] = tested on: COLO 205; assay: Growth inhibition of Homo sapiens (human) COLO205 cells at 10 uM by SRB assay
[2] = tested on: COLO 205; assay: Growth inhibition of Homo sapiens (human) COLO205 cells at 100 uM by SRB assay
[3] = tested on: THP-1; assay: Growth inhibition of Homo sapiens (human) THP1 cells at 100 uM by SRB assay
[4] = tested on: A549; assay: Growth inhibition of Homo sapiens (human) A549 cells at 10 uM by SRB assay
[5] = tested on: A549; assay: Growth inhibition of Homo sapiens (human) A549 cells at 100 uM by SRB assay
[6] = tested on: THP-1; assay: Growth inhibition of Homo sapiens (human) THP1 cells at 10 uM by SRB assay
[7] = tested on: COLO 205; assay: Growth inhibition of Homo sapiens (human) COLO205 cells at 1 uM by SRB assay

Compound | inhibition of growth at 10 µM [1] | inhibition of growth at 100 µM [2] | inhibition of growth at 100 µM [3] | inhibition of growth at 10 µM [4] | inhibition of growth at 100 µM [5] | inhibition of growth at 10 µM [6] | inhibition of growth at 1 µM [7]
COc1cc(C2CC(c3ccccc3)=NN2C(C)=O)ccc1OCc1cn(Cc2ccc([N+](=O)[O-])cc2)nn1 (stereo not given) | 7% | 11% | 10% | 0% | 11% | 0% | –
CC(=O)O[C@H]1C(=O)[C@@]2(C)[C@H]([C@H](OC(=O)c3ccccc3)[C@]3(O)C[C@H](OC(=O)[C@H](O)[C@@H](NC(=O)c4ccccc4)c4ccccc4)C(C)=C1C3(C)C)[C@]1(OC(C)=O)CO[C@@H]1C[C@@H]2O [PACLITAXEL] | – | – | – | 59% | – | 62% | –
COc1cc(C2CC(c3ccc(Br)cc3)=NN2C(C)=O)ccc1OCc1cn(Cc2ccc([N+](=O)[O-])cc2)nn1 (stereo not given) | 26% | 47% | 23% | 0% | 17% | 1% | –
COc1cc(C2CC(c3cc(OC)c(OC)c(OC)c3)=NN2C(C)=O)ccc1OCc1cn(Cc2ccc([N+](=O)[O-])cc2)nn1 (stereo not given) | 60% | 99% | 43% | 68% | 85% | 29% | –
COc1cc(C2CC(c3ccc(Cl)cc3)=NN2C(C)=O)ccc1OCc1cn(Cc2ccc([N+](=O)[O-])cc2)nn1 (stereo not given) | 0% | 10% | 37% | 0% | 0% | 17% | –
COc1cc(C2CC(c3cccc4ccccc34)=NN2C(C)=O)ccc1OCc1cn(Cc2ccc([N+](=O)[O-])cc2)nn1 (stereo not given) | 46% | 72% | 79% | 89% | 95% | 10% | –
CO[C@@]12[C@H](COC(N)=O)C3=C(C(=O)C(C)=C(N)C3=O)N1C[C@@H]1N[C@@H]12 [MITOMYCIN] | – | – | – | – | – | 65% | –
COc1ccc(C2=NN(C(C)=O)C(c3ccc(OCc4cn(Cc5ccc([N+](=O)[O-])cc5)nn4)c(OC)c3)C2)cc1 (stereo not given) | 10% | 75% | 14% | 43% | 84% | 8% | –
COc1cc(C2CC(c3ccc(OCc4cn(Cc5ccc([N+](=O)[O-])cc5)nn4)cc3)=NN2C(C)=O)ccc1OCc1cn(Cc2ccc([N+](=O)[O-])cc2)nn1 (stereo not given) | 27% | 51% | 15% | 29% | 42% | 0% | –
COc1ccc(C2CC(c3ccc(OCc4cn(Cc5ccc([N+](=O)[O-])cc5)nn4)cc3)=NN2C(C)=O)cc1 (stereo not given) | 4% | 37% | 26% | 26% | 33% | 15% | –
COc1cccc2c1C(=O)c1c(O)c3c(c(O)c1C2=O)C[C@@](O)(C(=O)CO)C[C@@H]3O[C@H]1C[C@H](N)[C@H](O)[C@H](C)O1 [DOXORUBICIN HYDROCHLORIDE] | – | – | – | – | – | – | 72%
COc1ccc(C2CC(c3ccc(OCc4cn(Cc5ccc([N+](=O)[O-])cc5)nn4)cc3)=NN2C(C)=O)cc1OC (stereo not given) | 9% | 38% | 9% | 11% | 36% | 8% | –
CC(=O)N1N=C(c2ccc(OCc3cn(Cc4ccc([N+](=O)[O-])cc4)nn3)cc2)CC1c1ccccc1 (stereo not given) | 18% | 55% | 22% | 15% | 80% | 0% | –
COc1cc(C2CC(c3ccc([N+](=O)[O-])cc3)=NN2C(C)=O)ccc1OCc1cn(Cc2ccc([N+](=O)[O-])cc2)nn1 (stereo not given) | 33% | 85% | 59% | 39% | 72% | 7% | –
